How the values were obtained:
paw of rats = assay: Pharmacological test for anti-inflammatory properties (carrageenan rat paw swelling); assay type: in vivo; conditions: oral 1 hour before carrageenan (0.05 ml of 1%), swelling 4 hours after injection by plethysmography, dose not given
Description: 1. Pharmacological test for anti-inflammatory properties.
The compounds to be tested are given as freshly prepared solutions or suspensions by oral route 1 hour before injecting the paw of rats with carrageenan which is a known inflammatory agent.
The inflammatory agent (carrageenan) either in solution or suspension is then injected into the plantar tissue of the right hind paw of each rat, the left paw remaining untreated and serving as control. Each animal receives, for example, 0.05 ml of an aqueous solution containing 1% by weight of carrageenan and 0.9% of sodium chloride.
4 hours after the injection of the inflammatory agent, the importance of swelling is determined by plethysmography and is expressed as a percent of the volume of the control paw.
The anti-inflammatory effect expressed as a percentage of inhibition is obtained by comparison between rats treated with the anti-inflammatory compound and a control group of rats.

rats = assay: Pharmacological test for diuretic properties (urine volume); assay type: in vivo; conditions: 50 mg/kg gastric gavage, 25 ml/kg saline s.c., urine collected 4 hours, ml/kg of body weight
Description: 2. Pharmacological tests for diuretic properties Lots of 3 rats weighting 250-300 g have been constituted at random, each of them being submitted to the same treatment. The compound to be tested was administered by .[.gastric gavage at a dose of 50 ml/kg as a solution or a.]. .Iadd.gastric gavage at a dose of 50 mg/kg as a solution or a .[…].suspension in water containing 0.45% of methylcellulose (which is an inert mucilaginous substance). Control animals received only distilled water as a placebo. At the same time, all the animals received 25 ml/kg of physiological saline by subcutaneous injection. The rats were then placed in metabolic cages, each cage containing 3 animals receiving the same treatment. The urines have been collected during 4 hours. […] The diuresis is expressed in ml/kg of body weight.

Question: For `CNC(=O)NS(=O)(=O)c1cnccc1Nc1cccc(Cl)c1` [JDL 379, 3-methylcarbamylsulfonamido-4-(3'-chloro)-phenylaminopyridine], which “% inhibition of acute oedema” value (paw of rats) is on record?
Answer: 63.2%

Question: And the Diuresis (rats)?
Answer: 76.5 mL/kg

Question: What does the source list for `CC(C)NC(=O)NS(=O)(=O)c1cnccc1Nc1cccc(Cl)c1` [JDL 413, 3-isopropylcarbamylsulfonamido-4-(3'-chloro)-phenylaminopyridine]?
Answer: % inhibition of acute oedema (paw of rats): 76.8%; Diuresis (rats): 92.5 mL/kg

Question: With `CCNC(=O)NS(=O)(=O)c1cnccc1Nc1ccc(Cl)c(Cl)c1` [JDL 475, 3-ethylcarbamylsulfonamido-4-(3',4'-dichloro)-phenylaminopyridine] as the compound, how does the “% inhibition of acute oedema” value (paw of rats) read?
Answer: 79.2%

Question: And the Diuresis (rats)?
Answer: 34.3 mL/kg

Question: Which “% inhibition of acute oedema” value (paw of rats) does the source give for “3-isopropylcarbamylsulfonamido-4-isopropylaminopyridine [JDL 363]” here?
Answer: 63.2%

Question: What about the Diuresis (rats) of the same compound?
Answer: 40.1 mL/kg

Question: `O=C(NS(=O)(=O)c1cnccc1Nc1cccc(C(F)(F)F)c1)c1ccccc1` [C 2129, 3-benzoylsulfonamido-4-(3'-trifluoromethyl)-phenylaminopyridine] was tested. Which “% inhibition of acute oedema” value (paw of rats) did it give?
Answer: 23.2%

Question: And the Diuresis (rats)?
Answer: 30.3 mL/kg

Question: Which “% inhibition of acute oedema” value (paw of rats) does the source give for `CNC(=O)NS(=O)(=O)c1cnccc1Nc1cccc(OC)c1` [JDL 493, 3-methylcarbamylsulfonamido-4-(3'-methoxy)-phenylaminopyridine] here?
Answer: 59.2%

Question: What about the Diuresis (rats) of the same compound?
Answer: 50.7 mL/kg

Question: What does the source list for `CC(C)NC(=O)NS(=O)(=O)c1cnccc1Nc1cccc([N+](=O)[O-])c1` [JDL 505, 3-isopropylcarbamylsulfonamido-4-(3'-nitro)-phenylaminopyridine]?
Answer: % inhibition of acute oedema (paw of rats): 68.0%; Diuresis (rats): 56.3 mL/kg

Question: For `O=C(Nc1ccccc1)NS(=O)(=O)c1cnccc1Nc1cccc(Cl)c1` [JDL 390, 3-phenylcarbamylsulfonamido-4-(3'-chloro)-phenylaminopyridine], which “% inhibition of acute oedema” value (paw of rats) is on record?
Answer: 47.2%

Question: What about the Diuresis (rats) of the same compound?
Answer: 16.9 mL/kg

Question: `CCCCNC(=O)NS(=O)(=O)c1cnccc1Sc1cccc(Cl)c1` [JDL 366, 3-butylcarbamylsulfonamido-4-(3'-chloro)-thiophenoxypyridine] was tested. Which “% inhibition of acute oedema” value (paw of rats) did it give?
Answer: 56.0%

Question: And the Diuresis (rats)?
Answer: 11.1 mL/kg

Question: Which results are given for `CCCCNC(=O)NS(=O)(=O)c1cnccc1Nc1cccc(C(F)(F)F)c1` [JDL 356, 3-butylcarbamylsulfonamido-4-(3'-trifluoromethyl)-phenylaminopyridine]?
Answer: % inhibition of acute oedema (paw of rats): 80.8%; Diuresis (rats): 54.7 mL/kg
